Data taken from patent US20020115661A1, “Method for treating chronic obstructive pulmonary disease” (priority 2000, published 2002).

Assays:
human ETA receptors = target: T1, human ETA receptors (Homo sapiens, UniProt P25101); assay: Saturation binding of [125I]ET-1, Scatchard analysis (Ltk- cell membranes)
T1 construct: expressed in transfected cells; host or cells: Ltk- cells (mouse fibroblast, thymidine kinase deficient)
T1 sequence (P25101 21-427): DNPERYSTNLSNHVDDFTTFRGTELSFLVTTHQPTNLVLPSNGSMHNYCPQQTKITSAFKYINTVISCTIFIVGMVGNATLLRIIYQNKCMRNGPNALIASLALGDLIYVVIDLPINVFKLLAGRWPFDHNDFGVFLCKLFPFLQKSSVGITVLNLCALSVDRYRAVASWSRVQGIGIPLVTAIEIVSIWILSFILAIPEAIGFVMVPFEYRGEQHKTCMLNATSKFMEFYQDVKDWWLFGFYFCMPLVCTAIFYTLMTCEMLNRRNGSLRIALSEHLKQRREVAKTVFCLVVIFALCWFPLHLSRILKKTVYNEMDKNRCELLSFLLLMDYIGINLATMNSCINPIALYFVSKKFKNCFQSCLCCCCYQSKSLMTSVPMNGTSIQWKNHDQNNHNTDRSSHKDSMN

[1] = target: T2, human ETA receptor signaling (Homo sapiens, UniProt P25101); assay: ET-1 induced Ca2+ transient (Calcium Green-1) in human pulmonary artery smooth muscle cells; format: cell-based; details: hPASMC, ET-1 100 nM; read-out: IC50, inhibition of ET-1 Ca2+ response
T2 construct: endogenous in cells; host or cells: human pulmonary artery smooth muscle cells (hPASMC)
T2 sequence (P25101 21-427): T1 sequence (P25101 21-427)

ETA receptor = target: T3, ETA receptor (Oryctolagus cuniculus, UniProt A5A8K3); assay: ET-1 induced contraction in isolated rabbit femoral artery
T3 sequence (A5A8K3 21-427): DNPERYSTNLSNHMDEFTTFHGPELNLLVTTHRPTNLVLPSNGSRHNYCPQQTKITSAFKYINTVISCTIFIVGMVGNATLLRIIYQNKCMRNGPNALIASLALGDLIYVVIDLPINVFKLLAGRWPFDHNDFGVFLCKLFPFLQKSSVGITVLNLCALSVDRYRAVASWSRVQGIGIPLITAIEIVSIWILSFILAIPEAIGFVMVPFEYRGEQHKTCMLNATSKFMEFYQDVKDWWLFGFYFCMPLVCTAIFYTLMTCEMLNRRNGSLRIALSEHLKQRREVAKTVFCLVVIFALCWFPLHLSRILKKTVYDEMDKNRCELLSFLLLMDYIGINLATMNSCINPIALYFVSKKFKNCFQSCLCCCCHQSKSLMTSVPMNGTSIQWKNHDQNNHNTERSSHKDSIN
Protocol: In rabbit femoral artery vasculature, the receptor responsible for mediating the contractile activity of ET-1 appears to be predominantly the ETA receptor subtype, whereas in the rabbit pulmonary artery the contractile activity of ET-1 appears to be mediated by both ETA and ETB receptors.
In rabbit femoral and pulmonary arteries, ET-1 produced concentration-dependent increases in contractile tension starting at 1 nM.

[2] = system: acute hypoxia-induced pulmonary hypertension; assay: Pulmonary hypertension in response to acute hypoxia in rats; format: in vivo, rat
Protocol: Exposure to hypoxia produces an acute pulmonary hypertensive response in the rat. […] The hypothesis has since been tested through blockade of the hypertensive response with several ET antagonists. The antihypertensive dose of CI-1034 was determined in response to acute hypoxia.
Heparinized plasma samples were collected 10 minutes after the final MPAP measurement was made.

Solubility = format: physicochemical
Protocol: The compound acts as a base, raising the pH of the water to a measured value of 8.9 for a 100 mg/mL solution.
CI-1034 is insoluble in hexane and isopropanol.

Pharmacokinetics in dogs = format: in vivo; details: dog
anesthetized dogs = assay: Pulmonary function in anesthetized dogs; format: in vivo, dog
Protocol: (§1) Each animal received each treatment and served as its own control, with 7 days between treatments. […] Pulmonary function parameters were evaluated for 60 minutes after each dose, and included minute volume, respiratory rate, resistance, compliance, peak inspiratory and expiratory volumes, and tidal volume. Indirect blood pressure measurements were made periodically throughout the pulmonary data collection period since endothelin receptor antagonists are known to induce hypotension.
(§2) Plasma concentration in this dog 5 minutes postdose was 1960 μg/mL.

[3] = Plasma CI-1034 concentrations in anesthetized dogs; format: in vivo, dog; details: for concentration at 5 min: plasma, intravenous
Protocol: as §1, §2

[4] = Plasma CI-1034 concentrations in anesthetized dogs; format: in vivo; details: intravenous, dog; for concentration at 15 min: 15 minutes postdose; for concentration at 30 min: 30 minutes postdose; for concentration at 60 min: 60 minutes postdose
[5] = anesthetized dogs, 30 or 60 mg/kg

## CCc1cc(C2=C(C(=O)[O-])N(c3ccccc3C(F)(F)F)S(=O)(=O)c3ccccc32)cc2c1OCO2.[K+] [CI-1034, 4-(7-Ethyl-1,3-benzodioxol-5-yl)-2-[2-(trifluoromethyl)phenyl]-2H-1 ,2-benzothiazine-3-carboxylic acid 1,1-dioxide monopotassium salt]
Human ETA receptors; Scatchard analysis, read-out: Ki (inhibitor constant of unlabeled antagonist)
  Ki: 510 pM
Human ETA receptors; saturation binding
  effect on Bmax (maximal [125I]ET-1 binding): without significantly affecting
  effect on apparent Kd of [125I]ET-1 binding: reduced
[1]
  IC50: 220 pM
ETA receptor; isolated rabbit vasculature, femoral versus pulmonary artery KB
  potency at blocking ETA versus ETB receptor signaling: 389 fold
ETA receptor; rabbit femoral artery
  effect on ET-1 induced maximal contraction: not affected
ETA receptor; rabbit femoral artery, r=0.99
  Schild regression slope: 0.88
[2]; Rattus norvegicus, rats, PO, relative to hypoxic control, read-out: ED50, inhibition of acute pulmonary hypertensive response
  ED50: 0.8 mg/kg
[2]; Rattus norvegicus, simple Emax model, acute hypoxia, read-out: plasma concentration predicted to produce half-maximal effect
  EC50: 0.03 ± 0.03 µg/mL
[2]; rats, 0.3 mg/kg PO 30 minutes before hypoxia (10% O2)
  reduction of peak pulmonary hypertensive response at 4 hours: 34%±1%
[2]; rats, 3.0 mg/kg PO 30 minutes before hypoxia (10% O2)
  reduction of peak pulmonary hypertensive response at 4 hours: 70%±3%
[2]; simple Emax model, acute hypoxia
  predicted maximal antihypertensive effect: 81%±23%
Solubility; 0.05 M pH 4 acetate buffer
  solubility: very slightly soluble
Solubility; 0.05 M pH 7.4 potassium phosphate buffer
  solubility: very slightly soluble
Solubility; 0.1N HCl
  solubility: insoluble
Solubility; 100 mg/mL solution in water
  pH of aqueous solution: 8.9
Solubility; 0.5 M pH 7.4 potassium phosphate buffer, after 24 hours
  concentration after 24 hours: approximately 0.8 mg/mL
Solubility; 0.5 M pH 7.4 potassium phosphate buffer, initial
  concentration reached on rapid dissolution: approximately 13 mg/mL
Solubility; acetonitrile
  solubility: slightly soluble
Solubility; chloroform
  solubility: very slightly soluble
Solubility; dichloromethane
  solubility: very slightly soluble
Solubility; dimethylsulfoxide
  solubility: freely soluble
Solubility; ethanol
  solubility: sparingly soluble
Solubility; hexane
  solubility: insoluble
Solubility; isopropanol
  solubility: insoluble
Solubility; methanol
  solubility: freely soluble
Solubility; tetrahydrofuran
  solubility: slightly soluble
Solubility; water
  solubility: freely soluble
Pharmacokinetics in dogs; in vivo, po, dogs
  bioavailability: ~100%
Pharmacokinetics in dogs; up to 100 mg/kg
  increase of plasma concentrations with dose: approximately proportional to dose
Anesthetized dogs; anesthetized dog, 40 mg/kg intravenous, one animal
  effects on pulmonary function: No effects were apparent
Anesthetized dogs; anesthetized dog, 180 mg/kg intravenous, within 5 minutes postdose, one animal
  pulmonary finding: Respiratory arrest
Anesthetized dogs; [5]
  effect on blood pressure: no significant effect
  effect on minute volume, pulmonary resistance, or pulmonary compliance: no effect
Anesthetized dogs; dog that died after 180 mg/kg
  histopathology, lungs: marked bilateral diffuse congestion
Anesthetized dogs; dog that died after 180 mg/kg, mild, primarily right coronary arteries
  histopathology, coronary arteries: Arteriopathy
Anesthetized dogs; dog, 180 mg/kg intravenous, one animal
  mortality: found dead on Day 3
[3]; anesthetized dogs
  plasma concentration versus dose: increased proportionally with dose
[3]; dog, 180 mg/kg, 5 minutes postdose, N = 1
  Plasma Concentration: 1960 µg/mL
[3]; dogs, 30 and 60 mg/kg, plasma 5 minutes postdose
  exposure relative to projected human therapeutic Cmax of […]: at least 940 times
[3]; dog, 30 mg/kg, 5 minutes postdose
  concentration at 5 min: 301 µg/mL
[3]; dog, 60 mg/kg, 5 minutes postdose
  concentration at 5 min: 574 µg/mL
[4]; 30 mg/kg
  concentration at 15 min: 221 µg/mL
  concentration at 30 min: 209 µg/mL
  concentration at 60 min: 157 µg/mL
[4]; 40 mg/kg, 5 minutes postdose, N = 1
  concentration at 5 min: 395 µg/mL
[4]; 40 mg/kg, N = 1
  concentration at 15 min: 327 µg/mL
  concentration at 30 min: 267 µg/mL
  concentration at 60 min: 230 µg/mL
[4]; 60 mg/kg
  concentration at 15 min: 427 µg/mL
  concentration at 30 min: 367 µg/mL
  concentration at 60 min: 337 µg/mL
